Assay results as given in PMC10556625 (Proceedings of the National Academy of Sciences of the …, 2023).

Tested on: HeLa cells

With `N#Cc1c(-n2c(Br)c(Br)c3cc(Br)ccc32)[nH]c2c(Br)cc(Br)cc12` [AETX, aetokthonotoxin] as the compound, how does the “Cytotoxicity EC50 on HeLa cells converted to mass concentration” value read?
Its value is 0.65 µg/mL.

What about the EC50 of the same compound?
The EC50 was 1000 nM.
